The text below walks through data of patent publication US20230144459A1, “SHEDDING BLOCKING AGENTS WITH INCREASED STABILITY” (BIOND BIOLOGICS LTD., priority 2020, published 2023).

In the assay the target is T1, human CD28 (shedding of sCD28 from cells) (Homo sapiens, UniProt P10747).
T1 construct: endogenous in cells; host or cells: CD4 T cells and PBMCs from fresh blood of healthy donors
The assay is described as follows: Inhibition of CD28 shedding in stimulated lymphocytes (CD4 with PHA and IL-2 or PBMCs with SEB). To be noted: percent of soluble CD28 reduction from basal stimulation; constructs and isotype 3 μM, MMPi TMI-1 1 μM. Type of assay: cell-based.

T1 sequence (P10747 19-220): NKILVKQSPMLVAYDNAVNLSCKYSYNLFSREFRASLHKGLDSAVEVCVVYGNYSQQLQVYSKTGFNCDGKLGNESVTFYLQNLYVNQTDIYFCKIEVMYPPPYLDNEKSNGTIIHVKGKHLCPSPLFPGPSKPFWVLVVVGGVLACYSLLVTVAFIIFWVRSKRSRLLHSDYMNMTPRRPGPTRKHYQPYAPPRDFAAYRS

As to `CC#CCOc1ccc(S(=O)(=O)N2CCSC(C)(C)[C@@H]2C(=O)NO)cc1` [MMPi, TMI-1, reference compound], the “Inhibition (%) of CD28 shedding” value was 60.5%.
